In patent US20090263470A1, “Vaccine Compositions Comprising Virosomes and a Saponin Adjuvant” (priority 2004, published 2009):
Like-named read-outs stand apart in the source and are kept apart here.

Columns and labels:
[1] = system: red blood cells; conditions: OD at 540 nm
[2] = QS21 injected parenterally as a free molecule; cited from earlier work
[3] = system: red blood cells; test: Lytic activity of QS21 alone versus QS21 in the Inflexal V formulation against red blood cells, OD at 540 nm; format: cell-based; conditions: equivalent of 2.5 μg QS21 in 900 μl PBS pH 7.4 + 100 μl red blood cells, 30 minutes at RT
Procedure: 500 μl Inflexal V® vaccine, has been adjuvanted by the addition of 50 μg QS21. The resulting composition of this mixture is: +/−117 μg of Lecithin, 45 μg HA, 50 μg QS21 in 525 μl. The lytic activity of QS21 in this formulation has been compared to the lytic activity of QS21 alone.
Practically, a volume of the formulation “Inflexal V+QS21” containing the equivalent of 2.5 μg of QS21 is added to PBS pH 7.4 to reach a final volume of 900 μl. In parallel, 2.5 μg QS21 is taken and also diluted to 900 μl with PBS.
100 μl of red blood cells (10× diluted) are added to those 2 samples as described above. Samples are let for 30 minutes at RT. After centrifugation at 2000 rpm, the OD of the supernatant is red at 540 nm.

For QS21, the OD ([1]; 1 μg QS21) was 0.217, the OD ([1]; 1.5 μg QS21) was 0.631 and the OD ([1]; 2.5 μg QS21) was 0.891. For the same substance, the injection site observation [2] was “necrosis” and the OD [3] was 1.63.
